Measured values from patent US9290551B2, “Compounds for treating papilloma virus infection” (NanoVir, LLC, priority 2012, dated 2016).

Tests used:
HPV 16 = HPV 16 episome DNA levels in W12E cells by Q-PCR (Taqman); type: cell-based, Human papilloma virus; details: for IC50: effective (pseudo) IC50, 50% reduction in HPV DNA relative to vehicle (0.1% DMSO), read-out: HPV-16 IC50
Method: Cells maintaining HPV 16 DNA were cultured for 72 hours in the presence of cidofovir, interferon γ or polyamide. Viral DNA was then quantified using real-time PCR and compared to vehicle (DMSO)-treated control cultures.
Compounds were initially tested for effects on HPV 16 episome DNA levels in W12E cells by Q-PCR (Taqman™) over 3 concentration ranges (0.1, 1 and 10 μM). W12E cells are a cervical keratinocyte cell line originally identified by M. Stanley (Cambridge University), and later optimized and provided by P. Lambert (U. of Wisconsin). […] In all cases (initial tests and follow-up IC50 tests), dose testing was performed in triplicate. […] Furthermore, all experiments were conducted in triplicate, multiple times. The data were then combined, pseudo or effective IC50 values calculated, and variance determined to reveal the fit of the data to the model and its reliability.
Keratinocytes that maintain HPV 16 episomes were treated with increasing concentrations of polyamides.

HPV18 = HPV18 DNA levels in keratinocytes by real-time PCR; type: cell-based, Human papilloma virus; details: effective (pseudo) IC50
Method: (§1) Human keratinocytes, including those maintaining HPV episomes, are cultured on mitomycin C-treated J2 3T3 cells in media containing three parts Dulbecco's modified Eagle medium (DMEM) and one part F12 media, our modification of published methods (Rheinwald and Green, 1975). Media (E Media) is supplemented with 0.4 μg/mL hydrocortisone, 10 ng/mL cholera toxin, 5 μg/mL insulin, 24 μg/mL adenine, 5 μg/mL transferrin, […] (T3), 10 ng/mL epidermal growth factor (EGF), 1% penicillin-streptomycin, and 5% fetal bovine serum (FBS). All cells are passaged at 70% confluency at a split ratio of 1:5.
(§2) Polyamides for HPV 18 are dissolved at 10 mM in 100% DMSO and diluted with H2O to 1 mM. Polyamides are added to cells in E media at final concentrations of 0.1-10 μM, with final DMSO concentrations of 0.1%. As controls, cells are incubated with normal E media and E media containing the “vehicle” 0.1% DMSO. The HPV DNA levels are then quantified according to previously published procedures (Garner-Hamrick and Fisher, Virology, 301, 334-41, 2002). After incubation, cells are harvested from the plates by either trypsinization or direct lysis with proteinase K digestion buffer (PK buffer: 100 mM NaCl, 10 mM Tris pH 8, 25 mM EDTA, 0.5% SDS, 0.1 mg/mL proteinase K). Trypsinized cells are counted on a hemocytometer and pelleted by centrifugation. Episomal HPV is isolated by the Hirt method (Hirt, 1967) and cell pellets are lysed in 0.6% SDS with 10 mM EDTA. NaCl is next added to a final concentration of 1 M. Following an overnight incubation at 4° C., precipitates containing the chromosomal DNA are spun down and episomal DNA precipitated by the addition of isopropanol. Cells lysed directly in PK buffer are transferred to microfuge tubes and incubated at 50° C. for 2 h. Lysates are then extracted with phenol/chloroform/isoamyl alcohol and spun through a phase lock gel (Eppendorf, Hamburg, Germany). Total DNA is then precipitated with 0.3 M NaOAc and 2.5 vol. ethanol and resuspended in Tris-EDTA (TE) buffer.
Viral DNA levels are next quantified according to variations on our previously published methods (Garner-Hamrick and Fisher, Virology, 301, 334-41, 2002). Quantitative PCR is performed using Real-Time PCR technology on an ABI PRISM 7700 Sequence Detector. All primers and probes were designed using Primer Express 1.0 (ABI). For HPV 18, PCR primer-probe sets were designed within the L1 gene:
(§3) All primers and probes are synthesized and HPLC purified by Applied Biosystems (Foster City, Calif.). The HPV probes are labeled with the 5′ reporter dye FAM (6-carboxy-fluorescein) and the 3′ quencher dye TAMRA (6-carboxytetramethyl-rhodamine). A standard curve is generated using a range of 10^8 to 10 copies/reaction of cloned, genomic HPV31 or HPV18 DNA using the following formula: (1.82×10^15)(μg/μL stock DNA)/(length in base pairs)(2)=copies/μL stock DNA. PCR reactions contain final concentrations of 1× Universal Master Mix (PE Applied Biosystems), 200 nM of each primer, and 250 nM probe (PE Applied Biosystems) in a reaction volume of 25 μL. Each Hirt-isolated DNA sample is analyzed in triplicate reactions for episomal HPV. Copies/reaction are determined from the standard curve, and copies/cell determined according to the following formula: (copies/reaction)×(DNA dilution)/(total # cells)=copies/cell.

HPV31 = HPV31 DNA levels in keratinocytes by real-time PCR; type: cell-based, Human papilloma virus; details: effective (pseudo) IC50
Method: as §1, §2
HPV31 primers-probe sets for PCR were also designed within the L1 gene:
as §3

[1] = system: Keratinocytes that maintain HPV 16 episomes; experiment: MTT cell viability assay; details: MTT assay; FIG. 2B, FIG. 5
Method: Cells were cultured for 5 days in the presence of polyamide; % Cell Viability=(OD590 drug/OD590 control)×100; n=3.
Solubilisation of the cells by the addition of a detergent results in the liberation of the crystals which are solubilized. The number of surviving cells is directly proportional to the level of the formazan product created. The color can then be quantified using a simple colorimetric assay. The results can be read on a multiwell scanning spectrophotometer (ELISA reader).
Cell viability was also assessed routinely with the MTT assay.

Molecule	IC50 (HPV 16) [nM]	effect on absolute HPV 16 DNA levels (HPV 16; higher doses, in some experiments, FIG. 3)	IC50 (HPV18) [nM]	IC50 (HPV31) [nM]	effect on HPV viral DNA (HPV 16; comparison of 1037, distamycin A and cidofovir, FIG. 5)	effect on cell viability [1]
CN(CCCN)CCCNC(=O)CCNC(=O)CCNC(=O)c1cc(NC(=O)c2cc(NC(=O)c3cc(NC(=O)CCNC(=O)c4cc(NC(=O)c5cc(NC(=O)c6cc(NC(=O)CCCNC(=O)c7cc(NC(=O)c8cc(NC(=O)c9cc(NC(=O)CCNC(=O)c%10cc(NC(=O)c%11cc(NC(=O)c%12cc(NC(=O)c%13nccn%13C)cn%12C)cn%11C)cn%10C)cn9C)cn8C)cn7C)cn6C)cn5C)cn4C)cn3C)cn2C)cn1C [Polyamide 1031, ImPPPβPPPγPPPβPPPββTa]	100 to 1000	nearly complete elimination of detectable viral DNA	100 to 1000	100 to 1000	–	–
CC(=O)N[C@H](CCNC(=O)c1cc(NC(=O)c2cc(NC(=O)CCNC(=O)c3nc(NC(=O)c4cc(NC(=O)c5cc(NC(=O)CCNC(=O)c6cc(NC(=O)c7cc(NC(=O)c8nccn8C)cn7C)cn6C)cn5C)cn4C)cn3C)cn2C)cn1C)C(=O)Nc1cc(C(=O)Nc2cc(C(=O)NCCC(=O)Nc3cc(C(=O)Nc4cc(C(=O)Nc5cc(C(=O)NCCC(=O)Nc6cc(C(=O)Nc7cc(C(=O)Nc8cc(C(=O)NCCC(=O)NCCCN(C)C)n(C)c8)n(C)c7)n(C)c6)n(C)c5)n(C)c4)n(C)c3)n(C)c2)n(C)c1 [Polyamide 1068, ImPPβPPIβPPγNHAcPPβPPPβPPPβDp]	100 to 1000	–	100 to 1000	100 to 1000	–	–
CN(C)CCCNC(=O)CCNC(=O)c1cc(NC(=O)c2cc(NC(=O)c3cc(NC(=O)CCNC(=O)c4cc(NC(=O)c5cc(NC(=O)c6cc(NC(=O)CCNC(=O)c7cc(NC(=O)c8cc(NC(=O)[C@@H](CCN)NC(=O)c9cc(NC(=O)c%10cc(NC(=O)CCNC(=O)c%11nc(NC(=O)c%12cc(NC(=O)c%13cc(NC(=O)CCNC(=O)c%14cc(NC(=O)c%15cc(NC(=O)c%16nccn%16C)cn%15C)cn%14C)cn%13C)cn%12C)cn%11C)cn%10C)cn9C)cn8C)cn7C)cn6C)cn5C)cn4C)cn3C)cn2C)cn1C [Polyamide 1050, ImPPβPPIβPPγNH2PPβPPPβPPPβDp]	100 to 1000	–	≥ 1000	100 to 1000	–	–
ImPPPβPPβPPPγNH2PPPβPPPβPPPβDp [Polyamide 1003]	100 to 1000	–	100 to 1000	100 to 1000	–	–
CN(CCCN)CCCNC(=O)CCNC(=O)c1cc(NC(=O)c2cc(NC(=O)c3cc(NC(=O)c4cc(NC(=O)CCNC(=O)c5cc(NC(=O)c6cc(NC(=O)[C@H](N)CCNC(=O)c7cc(NC(=O)c8cc(NC(=O)c9cc(NC(=O)CCNC(=O)c%10cc(NC(=O)c%11cc(NC(=O)c%12nccn%12C)cn%11C)cn%10C)cn9C)cn8C)cn7C)cn6C)cn5C)cn4C)cn3C)cn2C)cn1C [Polyamide 1030, ImPPβPPPγNH2PPβPPPPβTa]	100 to 1000	–	100 to 1000	100 to 1000	–	–
CN(CCCN)CCCNC(=O)CCNC(=O)c1cc(NC(=O)c2cc(NC(=O)c3cc(NC(=O)CCNC(=O)c4cc(NC(=O)c5cc(NC(=O)c6cc(NC(=O)CCNC(=O)c7cc(NC(=O)CCNC(=O)CCCNC(=O)c8nc(NC(=O)c9cc(NC(=O)c%10cc(NC(=O)CCNC(=O)c%11cc(NC(=O)c%12nc(NC(=O)c%13cc(NC(=O)CCNC(=O)c%14cc(NC(=O)c%15cc(NC(=O)c%16nccn%16C)cn%15C)cn%14C)cn%13C)cn%12C)cn%11C)cn%10C)cn9C)cn8C)cn7C)cn6C)cn5C)cn4C)cn3C)cn2C)cn1C [Polyamide 1045, ImPPβPIPβPPIγβPβPPPβPPPβTa]	> 1000	–	100 to 1000	≥ 1000	–	–
CN(C)CCCNC(=O)CCNC(=O)c1cc(NC(=O)c2cc(NC(=O)c3cc(NC(=O)CCNC(=O)c4cc(NC(=O)c5cc(NC(=O)c6cc(NC(=O)CCNC(=O)c7cc(NC(=O)c8cc(NC(=O)c9cc(NC(=O)CCCNC(=O)c%10cc(NC(=O)c%11cc(NC(=O)CCNC(=O)c%12cc(NC(=O)c%13cc(NC(=O)c%14cc(NC(=O)CCNC(=O)c%15cc(NC(=O)c%16cc(NC(=O)c%17cc(NC(=O)c%18nccn%18C)cn%17C)cn%16C)cn%15C)cn%14C)cn%13C)cn%12C)cn%11C)cn%10C)cn9C)cn8C)cn7C)cn6C)cn5C)cn4C)cn3C)cn2C)cn1C [Polyamide 1047, ImPPPβPPPβPPγPPPβPPPβPPPβDp]	> 1000	–	≥ 1000	≥ 1000	–	–
Cn1cc(NC(=O)c2cc(NC(=O)c3cc(NC=O)cn3C)cn2C)cc1C(=O)NCCC(=N)N [distamycin A, reference compound]	–	–	–	–	only effective against HPV DNA at high concentrations	also affect cell viability
ImPPβPPIβPPγPPβPPPβPPPPTa [Polyamide 1070]	100 to 1000	–	100 to 1000	100 to 1000	–	–
CN(CCCN)CCCNC(=O)CCNC(=O)c1cc(NC(=O)c2cc(NC(=O)c3cc(NC(=O)CCNC(=O)c4cc(NC(=O)c5cc(NC(=O)c6cc(NC(=O)CCNC(=O)c7cc(NC(=O)c8cc(NC(=O)c9cc(NC(=O)CCCNC(=O)c%10cc(NC(=O)c%11cc(NC(=O)CCNC(=O)c%12cc(NC(=O)c%13cc(NC(=O)c%14cc(NC(=O)CCNC(=O)c%15cc(NC(=O)c%16cc(NC(=O)c%17cc(NC(=O)c%18nccn%18C)cn%17C)cn%16C)cn%15C)cn%14C)cn%13C)cn%12C)cn%11C)cn%10C)cn9C)cn8C)cn7C)cn6C)cn5C)cn4C)cn3C)cn2C)cn1C [Polyamide 1048, ImPPPβPPPβPPγPPPβPPPβPPPβTa]	100 to 1000	–	100 to 1000	100 to 1000	–	–
CN(CCCN)CCCNC(=O)CCNC(=O)c1cc(NC(=O)c2cc(NC(=O)c3cc(NC(=O)CCNC(=O)c4cc(NC(=O)c5cc(NC(=O)c6cc(NC(=O)CCNC(=O)c7cc(NC(=O)c8cc(NC(=O)[C@H](N)CCNC(=O)c9cc(NC(=O)c%10cc(NC(=O)CCNC(=O)c%11nc(NC(=O)c%12cc(NC(=O)c%13cc(NC(=O)CCNC(=O)c%14cc(NC(=O)c%15cc(NC(=O)c%16nccn%16C)cn%15C)cn%14C)cn%13C)cn%12C)cn%11C)cn%10C)cn9C)cn8C)cn7C)cn6C)cn5C)cn4C)cn3C)cn2C)cn1C [Polyamide 1067, ImPPβPPIβPPγNH2PPβPPPβPPPβTa]	100 to 1000	–	100 to 1000	100 to 1000	–	–
